Measured values as given in the supplement of paper PMC10331698.
± gives the standard deviation of the averaged measurements.

Tests used:
Assay in all cases: level (log10 ratio to DMSO vehicle control); higher = higher biomarker level / cell amount than vehicle control
Settings in all cases: in DMSO
[1] = compound: C=C(C)C(=O)OCCC(F)(F)C(F)(F)C(F)(F)C(F)(F)C(F)(C(F)(F)F)C(F)(F)F [(Perfluoro-5-methylhexyl)ethyl 2-methylprop-2-enoate]
Protocol: (§1)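 BioMAP Diversity Plus panel of 12 human primary cell co-culture systems (3C, 4H, LPS, SAg, BT, BF4T, BE3C, CASM3C, HDF3CGF, KF3CT, MyoF, Mphg). Compounds were added 1 h before stimulation and left for 24 h (MyoF 48 h; BT 72 h for soluble read-outs or 6 d for IgG). Biomarkers were read by ELISA, cytotoxicity by SRB, PBMC viability and proliferation by Alamar Blue. Each well value was divided by the mean of 8 DMSO control wells on the same plate and log10 transformed; duplicate blinded samples were tested at 4 concentrations.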

[2] = compound: C=CC(=O)OCC(F)(F)C(F)(F)C(F)(F)C(F)(F)C(F)(F)C(F)(F)C(F)(F)F [1H,1H-Perfluorooctyl acrylate]
Protocol: as §1

[3] = compound: NC(=O)C(F)(F)C(F)(F)C(F)(F)F [Heptafluorobutyramide]
Protocol: as §1

[4] = compound: NC(=O)C(F)(F)C(F)(F)F [Pentafluoropropionamide]
Protocol: as §1

[5] = compound: O=C(O)C(F)(F)C(F)(F)C(F)(F)C(F)(F)C(F)(F)C(F)(F)C(F)(F)C(F)(F)C(F)(F)F [Perfluorodecanoic acid]
Protocol: as §1

[6] = compound: O=C(O)C(F)(F)C(F)(F)C(F)(F)C(F)(F)C(F)(F)C(F)(F)F [Perfluoroheptanoic acid]
Protocol: as §1

[7] = compound: O=C(O)C(F)(F)OC(F)(F)C(F)(F)OC(F)(F)F [Perfluoro-3,6-dioxaheptanoic acid]
Protocol: as §1

Test System | level (log10) ([1]; 6700 nM) | level (log10) ([1]; 20000 nM) | level (log10) ([2]; 6700 nM) | level (log10) ([2]; 20000 nM) | level (log10) ([2]; 60000 nM) | level (log10) ([3]; 6700 nM) | level (log10) ([3]; 20000 nM) | level (log10) ([3]; 60000 nM) | level (log10) ([4]; 6700 nM) | level (log10) ([4]; 20000 nM) | level (log10) ([4]; 60000 nM) | level (log10) ([5]; 6700 nM) | level (log10) ([5]; 20000 nM) | level (log10) ([6]; 6700 nM) | level (log10) ([6]; 20000 nM) | level (log10) ([6]; 60000 nM) | level (log10) ([7]; 6700 nM) | level (log10) ([7]; 20000 nM) | level (log10) ([7]; 60000 nM)
MyoF:bFGF | -0.0015 ± 0.005 | 0.002 ± 0.0014 | 0.003 | -0.0055 ± 0.0021 | 0.012 ± 0.024 | -0.0155 ± 0.021 | 0.004 ± 0.016 | -0.001 ± 0.013 | -0.002 ± 0.0042 | 0.0105 ± 0.012 | -0.0005 ± 0.029 | 0.001 ± 0.0042 | 0.0055 ± 0.0035 | -0.029 ± 0.0085 | -0.0255 ± 0.013 | -0.0075 ± 0.0021 | -0.021 ± 0.023 | 0.0045 ± 0.023 | -0.0095 ± 0.021
KF3CT:PAI-I | -0.035 ± 0.047 | -0.05 ± 0.018 | -0.0075 ± 0.00071 | -0.01 ± 0.013 | -0.0135 ± 0.018 | -0.0145 ± 0.0035 | -0.011 ± 0.0028 | 0.0105 ± 0.012 | -0.006 ± 0.0057 | 0.002 ± 0.0014 | 0.0075 ± 0.0021 | -0.0365 ± 0.023 | -0.144 ± 0.042 | -0.043 ± 0.016 | -0.0355 ± 0.012 | -0.013 ± 0.068 | 0.0035 ± 0.096 | 0.009 ± 0.0085 | 0.008 ± 0.072
MyoF:Collagen I | -0.0325 ± 0.037 | -0.037 ± 0.02 | -0.0195 ± 0.018 | -0.03 | -0.0145 ± 0.011 | -0.015 ± 0.013 | -0.0105 ± 0.00071 | -0.014 ± 0.0099 | 0.012 ± 0.0057 | 0.006 ± 0.0028 | 0.01 ± 0.0028 | -0.0065 ± 0.059 | -0.417 ± 0.071 | -0.0225 ± 0.011 | -0.006 | 0.0055 ± 0.043 | -0.0185 ± 0.039 | -0.002 ± 0.0099 | -0.0155 ± 0.023
CASM3C:SRB | -0.0025 ± 0.005 | -0.0095 ± 0.0035 | -0.007 ± 0.011 | 0.0005 ± 0.0078 | 0.0005 ± 0.00071 | -0.0135 ± 0.0078 | 0 ± 0.018 | -0.0065 ± 0.0078 | -0.002 ± 0.0057 | 0 ± 0.0085 | -0.0045 ± 0.00071 | 0.0055 ± 0.0064 | 0.0055 ± 0.0064 | -0.008 ± 0.0099 | -0.011 ± 0.0014 | -0.0065 ± 0.012 | -0.0065 ± 0.00071 | -0.002 ± 0.0028 | -0.0005 ± 0.0035
BE3C:SRB | 0.009 ± 0.0099 | 0.0065 ± 0.016 | 0.0005 ± 0.0078 | -0.003 ± 0.0085 | 0.0085 ± 0.015 | -0.0025 ± 0.0035 | 0.0005 ± 0.00071 | -0.002 ± 0.0042 | -0.0015 ± 0.0021 | -0.001 | -0.0015 ± 0.005 | -0.0245 ± 0.005 | -0.664 ± 0.021 | -0.006 ± 0.0071 | -0.0065 ± 0.0035 | 0.0035 ± 0.011 | 0.0005 ± 0.0064 | -0.0025 ± 0.00071 | 0.0015 ± 0.0064
CASM3C:Proliferation | -0.036 ± 0.0014 | -0.054 ± 0.071 | -0.0105 ± 0.029 | 0.0435 ± 0.013 | -0.028 ± 0.027 | -0.0675 ± 0.098 | 0.0315 ± 0.018 | -0.0275 ± 0.087 | -0.0115 ± 0.015 | -0.0025 ± 0.011 | 0.0235 ± 0.069 | 0.049 ± 0.0028 | 0.0205 ± 0.035 | -0.023 ± 0.0085 | -0.008 ± 0.035 | 0.0045 ± 0.053 | 0.02 ± 0.016 | -0.034 ± 0.065 | -0.077 ± 0.017
HDF3CGF:TIMP-2 | 0.0075 ± 0.026 | -0.0295 ± 0.019 | 0.0145 ± 0.016 | -0.023 ± 0.011 | -0.041 ± 0.0028 | -0.0195 ± 0.025 | -0.0065 ± 0.033 | -0.009 ± 0.071 | -0.0185 ± 0.026 | 0.008 ± 0.0057 | 0.033 ± 0.013 | -0.006 ± 0.028 | -0.349 ± 0.17 | -0.011 ± 0.018 | -0.012 ± 0.017 | 0.014 ± 0.0085 | -0.018 ± 0.062 | 0.003 ± 0.047 | 0.008 ± 0.045
HDF3CGF:CXCL10/IP-10 | -0.0005 ± 0.0078 | -0.003 | -0.001 ± 0.0057 | -0.0455 ± 0.022 | -0.047 | 0.007 ± 0.0099 | 0 ± 0.0057 | 0.0035 ± 0.011 | -0.0075 ± 0.022 | -0.009 ± 0.011 | 0.006 ± 0.04 | -0.0745 ± 0.015 | -0.427 ± 0.019 | -0.0295 ± 0.046 | -0.015 ± 0.016 | -0.0295 ± 0.0092 | 0.007 ± 0.011 | 0.0095 ± 0.0078 | -0.0075 ± 0.043
BE3C:tPA | -0.0245 ± 0.00071 | -0.0325 ± 0.021 | 0.005 ± 0.0028 | 0.0125 ± 0.00071 | 0.0605 ± 0.022 | -0.027 ± 0.017 | -0.0055 ± 0.0021 | -0.0115 ± 0.028 | -0.0055 ± 0.012 | -0.001 ± 0.018 | 0.003 ± 0.02 | 0.0215 ± 0.026 | -0.546 ± 0.0085 | -0.0205 ± 0.026 | -0.0255 ± 0.0078 | 0.017 ± 0.031 | -0.025 ± 0.0099 | -0.0485 ± 0.0021 | -0.03 ± 0.033
KF3CT:CXCL8/IL-8 | -0.013 ± 0.037 | 0.006 ± 0.03 | -0.0205 ± 0.021 | -0.0005 ± 0.019 | 0.0405 ± 0.0021 | 0.003 | 0.002 ± 0.0085 | 0.0095 ± 0.012 | -0.005 ± 0.0042 | -0.0105 ± 0.005 | 0.0215 ± 0.012 | -0.0225 ± 0.011 | -0.0035 ± 0.018 | -0.0055 ± 0.0064 | 0.002 | 0.0105 ± 0.00071 | -0.0075 ± 0.015 | 0.005 ± 0.011 | 0.0515 ± 0.033
lMphg:M-CSF | -0.005 ± 0.042 | 0.015 ± 0.042 | 0.015 ± 0.0028 | -0.0245 ± 0.023 | -0.027 ± 0.034 | -0.014 ± 0.018 | -0.034 ± 0.025 | -0.0135 ± 0.00071 | -0.0185 ± 0.0035 | -0.0285 ± 0.0021 | 0.002 ± 0.028 | 0.019 ± 0.021 | 0.0105 ± 0.037 | -0.006 ± 0.0014 | -0.001 ± 0.016 | 0.005 ± 0.0071 | -0.011 ± 0.016 | 0.003 ± 0.013 | -0.0345 ± 0.029
CASM3C:Serum Amyloid A | -0.0325 ± 0.021 | 0.025 ± 0.0085 | 0.03 ± 0.014 | 0.032 ± 0.044 | 0.0485 ± 0.013 | -0.0555 ± 0.023 | -0.0445 ± 0.042 | -0.0065 ± 0.096 | 0.0045 ± 0.015 | -0.0055 ± 0.0035 | 0.0245 ± 0.005 | 0.035 ± 0.031 | 0.0345 ± 0.026 | -0.006 ± 0.021 | -0.013 ± 0.04 | 0.022 ± 0.082 | -0.038 ± 0.055 | -0.014 ± 0.0085 | -0.002 ± 0.086
HDF3CGF:TIMP-1 | -0.035 ± 0.0071 | -0.0345 ± 0.0078 | -0.026 ± 0.05 | -0.029 ± 0.0057 | -0.015 ± 0.038 | 0.002 ± 0.017 | -0.017 ± 0.051 | -0.001 ± 0.0042 | -0.0265 ± 0.0092 | -0.01 ± 0.018 | 0.0045 ± 0.032 | 0.016 ± 0.037 | -0.0995 ± 0.03 | -0.0015 ± 0.00071 | -0.0115 ± 0.0035 | -0.0055 ± 0.035 | -0.0265 ± 0.029 | -0.012 ± 0.052 | -0.0655 ± 0.074
KF3CT:CD54/ICAM-1 | -0.01 ± 0.0042 | -0.0175 ± 0.0021 | -0.005 ± 0.016 | -0.0075 ± 0.005 | -0.0045 ± 0.0092 | -0.012 ± 0.014 | -0.002 ± 0.0028 | 0.0015 ± 0.012 | -0.009 ± 0.0057 | -0.0045 ± 0.016 | 0.006 ± 0.018 | 0.0095 ± 0.013 | -0.003 ± 0.0028 | -0.023 ± 0.0042 | -0.0085 ± 0.0035 | -0.0315 ± 0.00071 | -0.0055 ± 0.0035 | -0.0115 ± 0.00071 | -0.02 ± 0.011
HDF3CGF:Collagen I | 0.0115 ± 0.067 | 0.034 ± 0.092 | -0.0065 ± 0.05 | 0.0415 ± 0.005 | 0.0675 ± 0.05 | 0.0065 ± 0.011 | -0.0025 ± 0.015 | 0.0155 ± 0.069 | 0.039 ± 0.075 | 0.0205 ± 0.033 | 0.055 ± 0.047 | -0.02 ± 0.025 | -0.0095 ± 0.04 | -0.036 ± 0.045 | -0.009 ± 0.024 | 0.0395 ± 0.061 | 0.0055 ± 0.0064 | 0.049 ± 0.0085 | 0.069 ± 0.0014
